Laboratory results taken from patent US20250051344A1, “BIFUNCTIONAL SELECTIVE DEGRADERS OF SMARCA2 AND THERAPEUTIC USES THEREOF” (Nurix Therapeutics, Inc., priority 2023, published 2025).

Tests used:
[1] = target: T1, SMARCA4 (Homo sapiens, UniProt P51532); experiment: Cellular degradation assay, SMARCA4 (Table 1); format: cell-based
T1 construct: endogenous in cells

[2] = target: T2, SMARCA2 (Homo sapiens, UniProt P51531); experiment: SMARCA2 Cellular Degradation Assay (Western blot analysis on Jess platform); format: cell-based; conditions: for DC50 / Dmax: cellular degradation; for Fold Selectivity SMARCA4/2: ratio DC50 SMARCA4 / DC50 SMARCA2
T2 construct: endogenous in cells
Procedure, shortened: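 Tumor-derived cell pellets (5×10E5-1×10E6 live cells) lysed in RIPA + 0.2% SDS, phosphatase/protease inhibitors, benzonase; 5 μg protein/capillary on Jess; chemiluminescence/fluorescence immunoassay; SMARCA2/actin peak area, % of vehicle.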

T1 sequence (P51532 whole entry, species assumed): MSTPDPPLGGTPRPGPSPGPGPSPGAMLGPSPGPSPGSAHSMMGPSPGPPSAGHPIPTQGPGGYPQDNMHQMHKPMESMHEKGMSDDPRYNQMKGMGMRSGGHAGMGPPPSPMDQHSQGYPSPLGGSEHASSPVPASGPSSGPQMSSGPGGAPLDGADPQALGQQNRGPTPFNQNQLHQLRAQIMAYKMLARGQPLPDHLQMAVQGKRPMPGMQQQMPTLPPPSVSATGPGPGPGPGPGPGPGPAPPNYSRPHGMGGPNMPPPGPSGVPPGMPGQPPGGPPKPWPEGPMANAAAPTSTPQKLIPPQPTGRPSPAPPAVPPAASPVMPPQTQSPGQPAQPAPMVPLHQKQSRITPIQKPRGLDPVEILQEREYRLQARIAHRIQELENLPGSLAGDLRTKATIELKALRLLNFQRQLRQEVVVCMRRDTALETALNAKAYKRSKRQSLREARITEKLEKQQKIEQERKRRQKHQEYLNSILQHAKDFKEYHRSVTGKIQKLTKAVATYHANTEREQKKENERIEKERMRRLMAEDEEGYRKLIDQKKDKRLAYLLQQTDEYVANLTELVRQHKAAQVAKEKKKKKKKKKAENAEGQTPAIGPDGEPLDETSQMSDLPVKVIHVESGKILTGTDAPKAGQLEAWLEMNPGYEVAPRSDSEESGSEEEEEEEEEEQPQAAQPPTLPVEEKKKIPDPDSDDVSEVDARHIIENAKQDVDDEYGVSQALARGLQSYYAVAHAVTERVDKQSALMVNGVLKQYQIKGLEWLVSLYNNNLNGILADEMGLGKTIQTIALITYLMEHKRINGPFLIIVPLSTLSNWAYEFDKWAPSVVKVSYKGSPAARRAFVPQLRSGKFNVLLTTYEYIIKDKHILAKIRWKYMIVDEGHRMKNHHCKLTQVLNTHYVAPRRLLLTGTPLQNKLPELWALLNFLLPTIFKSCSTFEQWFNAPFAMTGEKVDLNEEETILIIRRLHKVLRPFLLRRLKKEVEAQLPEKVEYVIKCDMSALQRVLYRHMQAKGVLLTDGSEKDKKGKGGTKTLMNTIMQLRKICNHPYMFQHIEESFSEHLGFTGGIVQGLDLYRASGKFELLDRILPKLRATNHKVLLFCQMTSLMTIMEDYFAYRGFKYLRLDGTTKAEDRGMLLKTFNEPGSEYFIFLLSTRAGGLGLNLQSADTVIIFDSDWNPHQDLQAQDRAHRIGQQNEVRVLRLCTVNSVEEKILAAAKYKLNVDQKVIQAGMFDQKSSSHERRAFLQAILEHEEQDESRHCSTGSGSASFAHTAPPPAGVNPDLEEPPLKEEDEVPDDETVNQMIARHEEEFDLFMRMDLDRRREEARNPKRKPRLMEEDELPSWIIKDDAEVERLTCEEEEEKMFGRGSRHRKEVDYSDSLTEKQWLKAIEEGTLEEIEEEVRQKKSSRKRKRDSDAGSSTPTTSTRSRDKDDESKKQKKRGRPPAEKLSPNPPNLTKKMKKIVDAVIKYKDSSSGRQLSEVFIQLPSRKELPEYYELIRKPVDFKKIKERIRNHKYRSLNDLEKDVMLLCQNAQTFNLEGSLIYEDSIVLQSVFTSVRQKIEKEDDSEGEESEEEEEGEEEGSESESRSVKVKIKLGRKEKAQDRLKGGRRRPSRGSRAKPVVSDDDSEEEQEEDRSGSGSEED
T2 sequence (P51531 whole entry, species assumed): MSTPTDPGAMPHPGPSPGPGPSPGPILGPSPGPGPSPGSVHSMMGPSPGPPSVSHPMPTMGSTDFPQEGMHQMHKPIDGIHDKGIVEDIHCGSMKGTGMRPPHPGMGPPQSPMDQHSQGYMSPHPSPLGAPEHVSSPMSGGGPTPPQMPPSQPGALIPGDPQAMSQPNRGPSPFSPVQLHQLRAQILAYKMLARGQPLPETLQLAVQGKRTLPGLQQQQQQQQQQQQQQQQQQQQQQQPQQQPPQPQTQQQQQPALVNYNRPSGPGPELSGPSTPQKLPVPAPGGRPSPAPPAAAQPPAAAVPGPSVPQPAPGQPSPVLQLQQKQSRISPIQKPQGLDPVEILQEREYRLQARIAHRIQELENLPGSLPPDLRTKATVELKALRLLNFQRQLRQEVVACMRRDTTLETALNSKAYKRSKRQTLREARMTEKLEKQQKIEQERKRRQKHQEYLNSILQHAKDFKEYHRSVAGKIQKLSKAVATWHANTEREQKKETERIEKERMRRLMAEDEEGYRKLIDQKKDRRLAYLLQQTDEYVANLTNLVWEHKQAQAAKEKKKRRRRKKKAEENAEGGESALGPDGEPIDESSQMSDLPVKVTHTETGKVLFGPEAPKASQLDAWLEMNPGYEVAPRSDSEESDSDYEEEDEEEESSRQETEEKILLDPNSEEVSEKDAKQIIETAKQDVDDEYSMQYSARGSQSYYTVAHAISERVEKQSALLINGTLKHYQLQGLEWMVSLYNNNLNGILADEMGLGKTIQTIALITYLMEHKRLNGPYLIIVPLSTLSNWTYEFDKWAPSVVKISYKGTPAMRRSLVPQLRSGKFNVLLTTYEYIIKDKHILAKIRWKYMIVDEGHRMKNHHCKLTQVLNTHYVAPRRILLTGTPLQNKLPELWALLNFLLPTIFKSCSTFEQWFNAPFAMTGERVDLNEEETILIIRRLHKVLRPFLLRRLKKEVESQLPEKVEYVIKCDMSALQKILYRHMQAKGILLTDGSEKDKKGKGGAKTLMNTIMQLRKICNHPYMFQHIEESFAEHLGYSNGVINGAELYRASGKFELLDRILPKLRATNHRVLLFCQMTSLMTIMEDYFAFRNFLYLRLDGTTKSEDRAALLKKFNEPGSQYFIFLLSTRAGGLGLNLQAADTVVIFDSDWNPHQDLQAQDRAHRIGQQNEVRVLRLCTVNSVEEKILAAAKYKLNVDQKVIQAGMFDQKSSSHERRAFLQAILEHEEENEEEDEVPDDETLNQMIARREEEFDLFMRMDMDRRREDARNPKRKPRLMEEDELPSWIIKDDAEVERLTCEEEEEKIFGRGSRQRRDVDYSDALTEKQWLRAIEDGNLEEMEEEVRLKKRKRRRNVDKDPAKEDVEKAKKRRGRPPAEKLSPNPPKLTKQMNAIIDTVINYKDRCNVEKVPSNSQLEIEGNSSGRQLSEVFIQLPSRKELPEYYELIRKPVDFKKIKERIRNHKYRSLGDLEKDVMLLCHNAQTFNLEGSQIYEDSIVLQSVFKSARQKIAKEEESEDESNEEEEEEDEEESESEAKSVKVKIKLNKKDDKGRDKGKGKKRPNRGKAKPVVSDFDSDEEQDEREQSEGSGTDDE

DC50 [1] | Dmax [1] | DC50 [2] | Dmax [2] | Fold Selectivity SMARCA4/2 [2] | Structure (SMILES)
3.77 nM | 86.6% | 2.16 nM | 85% | 2 | O=C1CC[C@H](c2ccc(N3CCC(C(=O)N4CCC5(CC4)CN(CC4(c6ccccc6)CCN(c6cnnc(-c7ccccc7O)c6)CC4)C5)CC3)cc2)C(=O)N1 [Example 164, (3R)-3-(4-{4-[2-({1-[6-(2-hydroxyphenyl)pyridazin-4-yl]-4-phenylpiperidin-4-yl}methyl)-2,7-diazaspiro[3.5]nonane-7-carbonyl]piperidin-1-yl}phenyl)piperidine-2,6-dione]
104 nM | 62% | 6.28 nM | 86.6% | 17 | COc1cccc(C2(C(=O)NC3CCN(CC4CCN(c5ccc([C@H]6CCC(=O)NC6=O)cc5)CC4)C4(CCC4)C3)CCN(c3cnnc(-c4ccccc4O)c3)CC2)c1 (stereo partly drawn) [Example 169, N-{5-[(1-{4-[(3R)-2,6-dioxopiperidin-3-yl]phenyl}piperidin-4-yl)methyl]-5-azaspiro[3.5]nonan-8-yl}-1-[6-(2-hydroxyphenyl)pyridazin-4-yl]-4-(3-methoxyphenyl)piperidine-4-carboxamide]
– | 46.2% | 13.3 nM | 77.2% | 754 | O=C1CC[C@H](c2ccc(N3CCC(CNC4CCN(C(=O)C5(Oc6ccccc6)CCN(c6cnnc(-c7ccccc7O)c6)CC5)CC4)CC3)cc2)C(=O)N1 [Example 180, (3R)-3-[4-(4-{[(1-{1-[6-(2-hydroxyphenyl)pyridazin-4-yl]-4-phenoxypiperidine-4-carbonyl}piperidin-4-yl)amino]methyl}piperidin-1-yl)phenyl]piperidine-2,6-dione]
62.6 nM | 57.1% | 2.76 nM | 82.5% | 23 | O=C1CC[C@H](c2ccc(N3CCC(CN4CCC(NC(=O)C5(c6ccccn6)CCN(c6cnnc(-c7ccccc7O)c6)CC5)CC45CCC5)CC3)cc2)C(=O)N1 (stereo partly drawn) [Example 182, N-{5-[(1-{4-[(3R)-2,6-dioxopiperidin-3-yl]phenyl}piperidin-4-yl)methyl]-5-azaspiro[3.5]nonan-8-yl}-1-[6-(2-hydroxyphenyl)pyridazin-4-yl]-4-(pyridin-2-yl)piperidine-4-carboxamide]
249 nM | 56.2% | 6.43 nM | 80.7% | 39 | CC1(C)CC(NC(=O)C2(c3ccccc3)CCN(c3cnnc(-c4ccccc4O)c3)CC2)CCN1CC1CCN(c2ccc([C@H]3CCC(=O)NC3=O)cc2)CC1 (stereo partly drawn) [Example 183, N-{1-[(1-{4-[(3R)-2,6-dioxopiperidin-3-yl]phenyl}piperidin-4-yl)methyl]-2,2-dimethylpiperidin-4-yl}-1-[6-(2-hydroxyphenyl)pyridazin-4-yl]-4-phenylpiperidine-4-carboxamide]
37.6 nM | 80.7% | 4.88 nM | 91.3% | 8 | CCN(C(=O)C1(c2ccccc2)CCN(c2cnnc(-c3ccccc3O)c2)CC1)C1CCN(CC2CCN(c3ccc([C@H]4CCC(=O)NC4=O)cc3)CC2)CC1 [Example 184, N-{1-[(1-{4-[(3R)-2,6-dioxopiperidin-3-yl]phenyl}piperidin-4-yl)methyl]piperidin-4-yl}-N-ethyl-1-[6-(2-hydroxyphenyl)pyridazin-4-yl]-4-phenylpiperidine-4-carboxamide]
34.5 nM | 73.1% | 1.3 nM | 94.4% | 27 | CCN(C(=O)C1(c2ccccc2)CCN(c2cnnc(-c3ccccc3O)c2)CC1)C1CCN(CCC2CCN(c3ccc([C@H]4CCC(=O)NC4=O)cc3)CC2)CC1 [Example 187, N-{1-[2-(1-{4-[(3R)-2,6-dioxopiperidin-3-yl]phenyl}piperidin-4-yl)ethyl]piperidin-4-yl}-n-ethyl-1-[6-(2-hydroxyphenyl)pyridazin-4-yl]-4-phenylpiperidine-4-carboxamide]
15.6 nM | 81.8% | 1.7 nM | 93% | 9 | O=C1CC[C@H](c2ccc(N3CCC(CN4CCC5(CC4)CN(C(=O)C4(c6ccccc6)CCN(c6cnnc(-c7ccccc7O)c6)CC4)C5)CC3)nc2)C(=O)N1 [Example 189, (3R)-3-(6-{4-[(2-{1-[6-(2-hydroxyphenyl)pyridazin-4-yl]-4-phenylpiperidine-4-carbonyl}-2,7-diazaspiro[3.5]nonan-7-yl)methyl]piperidin-1-yl}pyridin-3-yl)piperidine-2,6-dione]
81.9 nM | 58.8% | 2.72 nM | 89.2% | 30 | O=C1CC[C@H](c2ccc(N3CCC(CN4CC[C@@H](NC(=O)C5(c6ccccc6)CCN(c6cnnc(-c7ccccc7O)c6)CC5)CC45CCC5)CC3)cc2)C(=O)N1 [Example 190, N-[(8R)-5-[(1-{4-[(3R)-2,6-dioxopiperidin-3-yl]phenyl}piperidin-4-yl)methyl]-5-azaspiro[3.5]nonan-8-yl]-1-[6-(2-hydroxyphenyl)pyridazin-4-yl]-4-phenylpiperidine-4-carboxamide]
128 nM | 46.4% | 4.58 nM | 88.8% | 28 | CN(C(=O)C1(c2ccccc2)CCN(c2cnnc(-c3ccccc3O)c2)CC1)C1CCN(CCC2CCN(c3ccc([C@H]4CCC(=O)NC4=O)cc3)CC2)CC1 [Example 192, N-{1-[2-(1-{4-[(3R)-2,6-dioxopiperidin-3-yl]phenyl}piperidin-4-yl)ethyl]piperidin-4-yl}-1-[6-(2-hydroxyphenyl)pyridazin-4-yl]-N-methyl-4-phenylpiperidine-4-carboxamide]
31.3 nM | 70.3% | 3.24 nM | 88.1% | 10 | O=C1CC[C@H](c2ccc(N3CCC(CN4CCC5(CC4)CN(C(=O)C4(c6ccccc6)CCN(c6cnnc(-c7ccccc7O)c6)CC4)C5)CC3)cc2)C(=O)N1 [Example 194, (3R)-3-(4-{4-[(2-{1-[6-(2-hydroxyphenyl)pyridazin-4-yl]-4-phenylpiperidine-4-carbonyl}-2,7-diazaspiro[3.5]nonan-7-yl)methyl]piperidin-1-yl}phenyl)piperidine-2,6-dione]
– | 28% | 14 nM | 74% | 714 | COC1(C(=O)N(C)C2CCN(CCC3CCN(c4ccc([C@H]5CCC(=O)NC5=O)cc4)CC3)CC2)CCN(c2cnnc(-c3ccccc3O)c2)CC1 [Example 196, (r)-n-(1-(2-(1-(4-(2,6-dioxopiperidin-3-yl)phenyl)piperidin-4-yl)ethyl)piperidin-4-yl)-1-(6-(2-hydroxyphenyl)pyridazin-4-yl)-4-methoxy-n-methylpiperidine-4-carboxamide]
